Measured values as given in patent US9499502B2, “5-substituted iminothiazines and their mono- and dioxides as BACE inhibitors, compositions, and their use” (Merck Sharp & Dohme Corp., priority 2011, dated 2016).

target: soluble human BACE1 catalytic domain (Homo sapiens (Human), UniProt P56817); assay: BACE1 HTRF FRET Assay; details: at 10 μM
Sequence (P56817 75-416): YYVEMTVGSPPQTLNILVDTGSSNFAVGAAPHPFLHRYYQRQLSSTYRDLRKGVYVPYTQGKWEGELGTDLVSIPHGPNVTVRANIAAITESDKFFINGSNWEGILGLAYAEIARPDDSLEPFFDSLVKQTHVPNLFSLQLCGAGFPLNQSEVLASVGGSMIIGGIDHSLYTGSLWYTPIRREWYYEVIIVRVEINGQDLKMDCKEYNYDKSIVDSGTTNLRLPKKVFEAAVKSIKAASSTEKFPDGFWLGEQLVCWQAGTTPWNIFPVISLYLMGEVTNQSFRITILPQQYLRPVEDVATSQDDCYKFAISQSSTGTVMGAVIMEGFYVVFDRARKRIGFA

| Compound | BACE1 inhibition, % Inh. at 10 μM |
| --- | --- |
| Cc1nc2cc(CC3(C)C(=N)N[C@](C)(c4cc(F)ccc4F)CS3(=O)=O)ccc2s1 (stereo partly shown) [Example 32-a] | 0% Inh at 10 μM |

same assay, conditions: read-out: BACE1 % Inh. at 1 μM, at 1 μM

| Compound | inhibition at 1 µM |
| --- | --- |
| CC1(C)C(=N)N[C@](C)(c2cc(-c3cc(F)cc(-c4nnco4)c3)ccc2F)CS1(=O)=O [Example 16a] | 43% |

same assay, conditions: read-out: BACE1 Ki

| Compound | Ki |
| --- | --- |
| CC1(C)C(=N)N[C@](C)(c2sc(-c3nnc(-c4ccc(F)cc4)o3)cc2F)CS1(=O)=O [Example 27bg] | 79.3 nM |
| CC1(C)C(=N)N[C@](C)(c2sc(-c3cccc(C#N)c3)cc2F)CS1(=O)=O [Example 27aq] | 76 nM |
| COc1ccc(-c2nnc(-c3cc(F)c([C@]4(C)CS(=O)(=O)C(C)(C)C(=N)N4)s3)o2)cc1 [Example 27bh] | 74 nM |
| C[C@@]1(c2ccc(F)cc2F)CS(=O)(=O)[C@@](C)(c2cccc(Br)c2)C(=N)N1 [Example 32g-a] | 381 nM |

same assay, conditions: read-out: BACE1 Ki; Ki calculated from IC50 using the Cheng-Prusoff equation

| Compound | Ki |
| --- | --- |
| CC1(C)C(=N)N[C@](C)(c2sc(C(=O)Nc3cccc(Cl)n3)cc2Cl)CS1(=O)=O [Example 20] | 26.9 nM |
| Cc1cnc(C(=O)Nc2cc(F)c(F)c([C@]3(C)CS(=O)(=O)C(C)(C)C(=N)N3)c2)cn1 [Example 9bo] | 69 nM |
| CC1(C)C(=N)N[C@](C)(c2sc(-c3nnc(-c4ccc(F)cc4)o3)cc2Cl)CS1(=O)=O [Example 27bb] | 102 nM |
| COc1ccc(C(=O)Nc2ccc(F)c([C@]3(C)CS(=O)(=O)[C@@](C)(c4cccc(F)c4)C(=N)N3)c2)nc1 [Example 9dc-a] | 3 nM |
| CC1(C)C(=N)N[C@](C)(c2cc(NC(=O)C(F)F)cc(F)c2F)CS1(=O)=O [Example 9bd] | 233 nM |
| COc1cnc(C(=O)Nc2cc(F)c(F)c([C@]3(C)CS(=O)(=O)C(C)(C)C(=N)N3)c2)cn1 [Example 9n] | 6.6 nM |
| CC1(C)C(=N)N[C@](C)(c2nc(NC(=O)c3ccc(Cl)cn3)ccc2F)CS1(=O)=O [Example 9cc] | 13.7 nM |
| C[C@@]1(c2ccccn2)C(=N)N[C@](C)(c2cc(NC(=O)c3ccc(C(F)(F)F)cn3)ccc2F)CS1(=O)=O [Example 9cz-b] | 181 nM |
| C[C@@]1(c2ccccn2)C(=N)N[C@](C)(c2cc(NC(=O)c3ccc(Cl)cn3)ccc2F)CS1(=O)=O [Example 9cw-b] | 72.7 nM |
| COc1ccc(C(=O)Nc2ccc(F)c([C@]3(C)CS(=O)(=O)[C@](C)(C(C)C)C(=N)N3)c2)nc1 [Example 9eb-b] | 257 nM |
| COCC(=O)Nc1ccc(F)c([C@]2(C)CS(=O)(=O)C(C)(C)C(=N)N2)c1 [Example 9at] | 60 nM |
| C=CC[C@]1(C)C(=N)N[C@](C)(c2cc(NC(=O)c3cnc(OC)cn3)ccc2F)CS1(=O)=O [Example 9dm-b] | 33.6 nM |
| COc1cnc(C(=O)Nc2ccc(F)c([C@]3(C)CS(=O)(=O)[C@](C)(c4ccccn4)C(=N)N3)c2)cn1 [Example 9cy-b] | 209 nM |
| COc1cnc(C(=O)Nc2ccc(F)c([C@]3(C)CS(=O)(=O)C(C)(C)C(=N)N3)n2)cn1 [Example 9cg] | 94.2 nM |
| CC1(C)C(=N)N[C@](C)(c2sc(-c3ccc(F)c(C(F)(F)F)c3)cc2Cl)CS1(=O)=O [Example 27a] | 172 nM |
| Cc1nnc(C(=O)Nc2ccc(F)c([C@]3(C)CS(=O)(=O)C(C)(C)C(=N)N3)c2)o1 [Example 9i] | 185 nM |
| COCC(=O)Nc1cc(F)c(F)c([C@]2(C)CS(=O)(=O)C(C)(C)C(=N)N2)c1 [Example 9bk] | 112 nM |
| CC(C)[C@]1(C)C(=N)N[C@](C)(c2cc(NC(=O)c3ccc(F)cn3)ccc2F)CS1(=O)=O [Example 9ea-b] | 224 nM |
| CC1(C)C(=N)N[C@](C)(c2cc(NC(=N)c3ncc(F)cc3F)ccc2F)CS1(=O)=O [Example 9ef] | 989 nM |
| COc1ccc(C(=O)Nc2ccc(F)c([C@]3(C)CS(=O)(=O)[C@](C)(C4CCC4)C(=N)N3)c2)nc1 [Example 9dx-b] | 307 nM |
| CC1=NOC(CNC(=O)c2cc(Cl)c([C@]3(C)CS(=O)(=O)C(C)(C)C(=N)N3)s2)C1 (stereo partly shown) [Example 22f] | 616 nM |
| CC1(C)C(=N)N[C@](C)(c2sc(-c3nnc(-c4ccc(Cl)cc4)o3)cc2Cl)CS1(=O)=O [Example 27bc] | 35.9 nM |
| CC1(C)C(=N)N[C@](C)(c2nc(NC(=O)c3cnc(Br)cn3)ccc2F)CS1(=O)=O [Example 9ck] | 21.7 nM |
| CC1(C)C(=N)N[C@](C)(c2cc(NC(=O)C3CCC3(F)F)ccc2F)CS1(=O)=O (stereo partly shown) [Example 9aw] | 299 nM |
| COc1ccc(C(=O)Nc2ccc(F)c([C@]3(C)CS(=O)(=O)[C@](C)(CC(F)(F)F)C(=N)N3)c2)nc1 [Example 9dq-b] | 54.3 nM |
| CC1(C)C(=N)N[C@](C)(c2sc(C(=O)NCc3cc(Cl)ccn3)cc2Cl)CS1(=O)=O [Example 22u] | 2720 nM |
| CC1(C)C(=N)N[C@](C)(c2c(F)c(F)cc(NC(=O)c3ccc(C(F)(F)F)cn3)c2F)CS1(=O)=O [Example 9ad] | 7.9 nM |
| CC(F)(F)C(=O)Nc1ccc(F)c([C@]2(C)CS(=O)(=O)C(C)(C)C(=N)N2)c1 [Example 9ai] | 82 nM |

same assay, conditions: read-out: BACE1 inhibition, % Inh. at 10 μM, at 10 μM

| Compound | inhibition at 10 µM |
| --- | --- |
| C[C@@]1(c2cccc(C(F)(F)F)c2)C(=N)N[C@](C)(c2cc(N)ccc2F)CS1(=O)=O [Entry 69] | 17% |
| C[C@@]1(C2CCC2)C(=N)N[C@](C)(c2cc(N)ccc2F)CS1(=O)=O [Entry 40] | 20% |
| Cc1nc2ccc(CC3(C)C(=N)N[C@](C)(c4cc(F)ccc4F)CS3(=O)=O)cc2s1 (mixture of isomers) [32b-a and 32b-b] | 11% |

same assay, conditions: read-out: BACE1 inhibition, Ki

| Compound | Ki |
| --- | --- |
| CC1(C)C(=N)N[C@](C)(c2sc(Br)cc2Cl)CS1(=O)=O [Example 4-1] | 1500 nM |

target: purified human autoBACE-2 (Homo sapiens (Human), UniProt Q9Y5Z0); assay: BACE-2 Assay (BACE-HTRF assay); type: biochemical; details: Ki calculated from IC50 using the Cheng-Prusoff equation; read-out: BACE2 Ki
Method: Inhibitor IC50s at purified human autoBACE-2 are determined in a time-resolved endpoint proteolysis assay that measures hydrolysis of the QSY7-[…]-Eu-amide FRET peptide substrate (BACE-HTRF assay). […] DMSO is present at 5% final concentration in the assay. Following laser excitation of sample wells at 320 nm, the fluorescence signal at 620 nm is collected for 400 ms following a 50 μs delay on a RUBYstar HTRF plate reader (BMG Labtechnologies). Raw RFU data is normalized to maximum (1.0 nM BACE/DMSO) and minimum (no enzyme/DMSO) RFU values. […] The Ki values are calculated from the IC50 using the Cheng-Prusoff equation.

purified human autoBACE-2, sequence (Q9Y5Z0 63-473): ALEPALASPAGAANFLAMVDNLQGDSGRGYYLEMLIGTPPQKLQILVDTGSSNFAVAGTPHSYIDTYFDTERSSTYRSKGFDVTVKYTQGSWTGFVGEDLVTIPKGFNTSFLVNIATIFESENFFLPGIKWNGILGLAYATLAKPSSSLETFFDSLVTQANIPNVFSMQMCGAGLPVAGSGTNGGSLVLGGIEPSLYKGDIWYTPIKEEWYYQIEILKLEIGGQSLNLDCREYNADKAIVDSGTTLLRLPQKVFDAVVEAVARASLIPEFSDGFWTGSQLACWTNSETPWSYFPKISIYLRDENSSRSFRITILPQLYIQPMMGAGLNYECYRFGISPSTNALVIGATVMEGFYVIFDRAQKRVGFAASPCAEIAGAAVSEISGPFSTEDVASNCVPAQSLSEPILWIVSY

| Compound | Ki |
| --- | --- |
| CC1(C)C(=N)N[C@](C)(c2sc(-c3nnc(-c4ccc(F)cc4)o3)cc2F)CS1(=O)=O [Example 27bg] | ≤ 20 nM |
| CC1(C)C(=N)N[C@](C)(c2sc(-c3cccc(C#N)c3)cc2F)CS1(=O)=O [Example 27aq] | ≤ 20 nM |
| CC1(C)C(=N)N[C@](C)(c2sc(C(=O)Nc3cccc(Cl)n3)cc2Cl)CS1(=O)=O [Example 20] | 8 nM |
| Cc1cnc(C(=O)Nc2cc(F)c(F)c([C@]3(C)CS(=O)(=O)C(C)(C)C(=N)N3)c2)cn1 [Example 9bo] | 22 nM |
| CC1(C)C(=N)N[C@](C)(c2sc(-c3nnc(-c4ccc(F)cc4)o3)cc2Cl)CS1(=O)=O [Example 27bb] | ≤ 20 nM |
| COc1ccc(C(=O)Nc2ccc(F)c([C@]3(C)CS(=O)(=O)[C@@](C)(c4cccc(F)c4)C(=N)N3)c2)nc1 [Example 9dc-a] | 11 to 100 nM |
| CC1(C)C(=N)N[C@](C)(c2cc(NC(=O)C(F)F)cc(F)c2F)CS1(=O)=O [Example 9bd] | 40 nM |
| COc1cnc(C(=O)Nc2cc(F)c(F)c([C@]3(C)CS(=O)(=O)C(C)(C)C(=N)N3)c2)cn1 [Example 9n] | 12 nM |
| CC1(C)C(=N)N[C@](C)(c2nc(NC(=O)c3ccc(Cl)cn3)ccc2F)CS1(=O)=O [Example 9cc] | ≤ 10 nM |
| C[C@@]1(c2ccccn2)C(=N)N[C@](C)(c2cc(NC(=O)c3ccc(C(F)(F)F)cn3)ccc2F)CS1(=O)=O [Example 9cz-b] | 101 to 700 nM |
| C[C@@]1(c2ccccn2)C(=N)N[C@](C)(c2cc(NC(=O)c3ccc(Cl)cn3)ccc2F)CS1(=O)=O [Example 9cw-b] | 11 to 100 nM |
| COc1ccc(C(=O)Nc2ccc(F)c([C@]3(C)CS(=O)(=O)[C@](C)(C(C)C)C(=N)N3)c2)nc1 [Example 9eb-b] | 101 to 700 nM |
| COCC(=O)Nc1ccc(F)c([C@]2(C)CS(=O)(=O)C(C)(C)C(=N)N2)c1 [Example 9at] | 14 nM |
| COc1ccc(-c2nnc(-c3cc(F)c([C@]4(C)CS(=O)(=O)C(C)(C)C(=N)N4)s3)o2)cc1 [Example 27bh] | ≤ 20 nM |
| C=CC[C@]1(C)C(=N)N[C@](C)(c2cc(NC(=O)c3cnc(OC)cn3)ccc2F)CS1(=O)=O [Example 9dm-b] | 11 to 100 nM |
| COc1cnc(C(=O)Nc2ccc(F)c([C@]3(C)CS(=O)(=O)[C@](C)(c4ccccn4)C(=N)N3)c2)cn1 [Example 9cy-b] | 101 to 700 nM |
| COc1cnc(C(=O)Nc2ccc(F)c([C@]3(C)CS(=O)(=O)C(C)(C)C(=N)N3)n2)cn1 [Example 9cg] | 85 nM |

| Compound | Ki |
| --- | --- |
| CC1(C)C(=N)N[C@](C)(c2sc(Br)cc2Cl)CS1(=O)=O [Example 4-1] | 500 to 10000 nM |
| CC1(C)C(=N)N[C@](C)(c2sc(-c3ccc(F)c(C(F)(F)F)c3)cc2Cl)CS1(=O)=O [Example 27a] | < 200 nM |
| Cc1nnc(C(=O)Nc2ccc(F)c([C@]3(C)CS(=O)(=O)C(C)(C)C(=N)N3)c2)o1 [Example 9i] | 49 nM |
| COCC(=O)Nc1cc(F)c(F)c([C@]2(C)CS(=O)(=O)C(C)(C)C(=N)N2)c1 [Example 9bk] | 12 nM |
| CC1(C)C(=N)N[C@](C)(c2cc(-c3cc(F)cc(-c4nnco4)c3)ccc2F)CS1(=O)=O [Example 16a] | 445 nM |
| CC(C)[C@]1(C)C(=N)N[C@](C)(c2cc(NC(=O)c3ccc(F)cn3)ccc2F)CS1(=O)=O [Example 9ea-b] | 11 to 100 nM |
| C[C@@]1(c2ccc(F)cc2F)CS(=O)(=O)[C@@](C)(c2cccc(Br)c2)C(=N)N1 [Example 32g-a] | 145 nM |
| CC1(C)C(=N)N[C@](C)(c2cc(NC(=N)c3ncc(F)cc3F)ccc2F)CS1(=O)=O [Example 9ef] | 218 nM |
| COc1ccc(C(=O)Nc2ccc(F)c([C@]3(C)CS(=O)(=O)[C@](C)(C4CCC4)C(=N)N3)c2)nc1 [Example 9dx-b] | 101 to 700 nM |
| CC1=NOC(CNC(=O)c2cc(Cl)c([C@]3(C)CS(=O)(=O)C(C)(C)C(=N)N3)s2)C1 (stereo partly shown) [Example 22f] | 1800 nM |
| CC1(C)C(=N)N[C@](C)(c2sc(-c3nnc(-c4ccc(Cl)cc4)o3)cc2Cl)CS1(=O)=O [Example 27bc] | ≤ 20 nM |
| CC1(C)C(=N)N[C@](C)(c2nc(NC(=O)c3cnc(Br)cn3)ccc2F)CS1(=O)=O [Example 9ck] | ≤ 10 nM |
| CC1(C)C(=N)N[C@](C)(c2cc(NC(=O)C3CCC3(F)F)ccc2F)CS1(=O)=O (stereo partly shown) [Example 9aw] | 47 nM |
| COc1ccc(C(=O)Nc2ccc(F)c([C@]3(C)CS(=O)(=O)[C@](C)(CC(F)(F)F)C(=N)N3)c2)nc1 [Example 9dq-b] | 11 to 100 nM |
| CC1(C)C(=N)N[C@](C)(c2sc(C(=O)NCc3cc(Cl)ccn3)cc2Cl)CS1(=O)=O [Example 22u] | 77 nM |
| CC1(C)C(=N)N[C@](C)(c2c(F)c(F)cc(NC(=O)c3ccc(C(F)(F)F)cn3)c2F)CS1(=O)=O [Example 9ad] | 41 nM |
| CC(F)(F)C(=O)Nc1ccc(F)c([C@]2(C)CS(=O)(=O)C(C)(C)C(=N)N2)c1 [Example 9ai] | 18 nM |

same assay, conditions: read-out: inhibition of BACE2 at 10 μM

| Compound | inhibition at 10 µM |
| --- | --- |
| Cc1nc2cc(CC3(C)C(=N)N[C@](C)(c4cc(F)ccc4F)CS3(=O)=O)ccc2s1 (stereo partly shown) [Example 32-a] | 1 to 24% |
| C[C@@]1(c2cccc(C(F)(F)F)c2)C(=N)N[C@](C)(c2cc(N)ccc2F)CS1(=O)=O [Entry 69] | 29 to 47% |
| C[C@@]1(C2CCC2)C(=N)N[C@](C)(c2cc(N)ccc2F)CS1(=O)=O [Entry 40] | 29 to 47% |
| Cc1nc2ccc(CC3(C)C(=N)N[C@](C)(c4cc(F)ccc4F)CS3(=O)=O)cc2s1 (mixture of isomers) [32b-a and 32b-b] | 1 to 24% |
